Molecules are shown by their SMILES. Where two headings read alike, the source gives them in different places.

For one series, the system named is E. coli (ATCC 25922). As to the kind of experiment: Inactivation of E. coli by disinfectants (membrane filter enumeration, contact time 5 min). In kind it is cell-based, Escherichia coli. To be noted: for log reduction at 3000 µg/mL: Escherichia coli, ATCC25922, 5 min, dose 3000 mg L-1, 5 min, read-out: Log (N/N0); for E. coli inactivation rate constant k / Log reduction (Mean ± SD): pH 7.2, contact time 5 min; for Log reduction (Mean ± SD): E. coli. As for the experimental part: The chemicals and reagents used are detailed in Supplementary Note 1. The bacteria E. coli (ATCC 25922) and S. aureus (ATCC 25923) were cultured aerobically in Luria-Bertani broth (Sigma-Aldrich) and Tryptone Soya broth (Oxoid), respectively, at 37 °C for 16 h. The fungus C. albicans (ATCC 14053) was aerobically cultured in Sabouraud Dextrose broth (Difco) at 37 °C for 24 h. The microorganism cells were harvested by centrifugation at 1200×g (10 min, 4 °C) and resuspended in phosphate-buffered saline (PBS, 10 mM, pH 7.2). The disinfection experiments were performed in PBS solutions (10 mM, pH 7.2) with an initial concentration of E. coli, S. aureus, or C. albicans of 10^6‒10^7 cells per milliliter. A contact time of 5 min was used in accordance with the recommended time range of 0.25–10 min by USEPA for surface disinfection. Preliminary tests were conducted to determine the appropriate range of DBP doses. The appropriate dose range was established when the lowest and highest doses could achieve <1-log and >3-log of microbial inactivation, respectively. Based on the preliminary results, a series of doses of DBPs were added to the cell suspensions at room temperature (22 ± 1 °C). After the contact time of 5 min, the microorganism cells were enumerated following a membrane filter method. Briefly, serial 10-fold dilutions were conducted for the disinfected samples and the control sample without disinfection. Each diluted suspension was subjected to filtration through 0.45-μm membrane, which was then placed on a petri dish. The Petri dishes containing E. coli, S. aureus, and C. albicans were incubated in m-FC medium (Becton Dickinson & Co) at 45 °C for 24 h, in Tryptone Soya broth at 37 °C for 24 h and in Sabouraud Dextrose broth at 37 °C for 24 h, respectively. After incubation, the colony-forming units within a statistically reasonable range (20–80) were counted.
The impact of pH on the disinfection efficiencies of DBPs was examined. E. coli (ATCC 25922) was used as the test strain. The disinfection experiments were performed in 10 mM PBS solutions (pH 6.2, 7.2, and 8.2) with an initial E. coli concentration of 10^6‒10^7 cells per milliliter. To initiate the disinfection, a DBP was dosed with a bacteria suspension at a predetermined concentration. After the given contact time (5 min) at room temperature (22 ± 1 °C), the bacteria were enumerated following the membrane filter method. The bacteria concentrations in the 10 mM PBS solutions (pH 6.2, 7.2, and 8.2) without the addition of DBPs were used as controls.

Series [1] in a line: UPLC/ESI-tqMS time profile of 2,6-DCQ and its degradation products in simulated seawater (pH 8.2, darkness); OH-DCQ formation. To be noted: 2,6-DCQ degradation, pH 8.2, darkness. The method, then: A Waters UPLC system coupled with ESI-tqMS was used to characterize the degradation products of 2,6-DCQ. The UPLC separation was performed using an HSS T3 column (100 × 2.1 mm, 1.8 μm particle size, Waters) with a column temperature of 35 °C. A gradient eluent of methanol–water was applied at a flow rate of 0.4 mL min^−1. The gradient program was set as follows: methanol/water (v/v) ratio changed linearly from 5/95 to 90/10 in the first 8 min and then returned to 5/95 during 8.0‒8.1 min, which was held for 2.9 min for re-equilibration. The ESI-tqMS was set as follows: ESI negative mode, capillary voltage 2.8 kV, cone voltage 10–50 V (depending on analytes), cone gas flow 50 L h^−1, source temperature 120 °C, desolvation temperature 400 °C, desolvation gas flow 800 L h^−1, collision energy 15–50 eV (depending on analytes), collision gas (argon) flow 0.25 mL min^−1, and mass resolution 15 (1-unit resolution).
The degradation of 2,6-DCQ in seawater was simulated by adding 10 mg L^−1 2,6-DCQ to 50 mL ultrapure water, which was adjusted to pH 8.2 with 5 mM sodium carbonate (to simulate the alkalinity in seawater and also to be compatible with the subsequent UPLC/ESI-tqMS analysis). The sample was kept in darkness for 0–24 h, during which the pH of the sample was maintained at 8.1 ± 0.1. At a designated reaction time, 7.5 μL of the sample was injected into the UPLC system. For a nonhalogenated degradation product, the selected ion recording (SIR) mode with a dwell time of 0.05 s was adopted to obtain the retention time. For halogenated degradation products, the multiple reaction monitoring mode with a dwell time of 0.05 s was used to obtain the retention time and the isotopic abundance ratio. To investigate the time-dependent profile of 2,6-DCQ and its degradation products, the peak area of each compound was determined using the SIR mode in the UPLC/ESI-tqMS analysis.
The second aliquot was subjected to analysis of total organic halogen to quantify the collected OH-DCQ. The determination of total organic halogen was based on Standard Method 5320B[52], with modifications of using off-line ion chromatography for halide detection. Briefly, the aliquot was dissolved in 100 mL ultrapure water and acidified to pH 2 with concentrated nitric acid[52] prior to adsorption onto pre-packed activated carbon columns (Mitsubishi). A three-channel adsorption module (TXA03C, Mitsubishi Chemical Analytech) was used for adsorption. An AQF-100 automatic quick furnace (Mitsubishi Chemical Analytech) was used for pyrolysis. During the pyrolysis process, the chlorine atoms in OH-DCQ were converted to chloride. The chloride ion concentration was determined using an ICS-3000 ion chromatography system (Dionex). 2,6-DCQ was used as a standard compound for measuring total organic halogen to determine the recovery of the analysis. The total organic halogen analysis was conducted in duplicate.

In the case of `O=C(O)c1cc(I)ccc1O` [5-ISA, 5-iodosalicylic acid], the log reduction at 3000 µg/mL is 0.247 in the series with E. coli (ATCC 25922) (pH 6.2, E. coli, pH 6.2); 0.373 with E. coli (ATCC 25922) (pH 7.2, E. coli, pH 7.2); 0.282 in the series with E. coli (ATCC 25922) (pH 8.2, E. coli, pH 8.2). Besides, the “E. coli inactivation rate constant k” value in the series with E. coli (ATCC 25922) was less than 0.01 L mg‒1 h‒1.

For the molecule `O=C(O)c1cc(Cl)ccc1O` [5-CSA, 5-chlorosalicylic acid], the log reduction at 3000 µg/mL is 0.218 with E. coli (ATCC 25922) (pH 6.2, E. coli, pH 6.2); 0.273 in the series with E. coli (ATCC 25922) (pH 7.2, E. coli, pH 7.2); 0.304 in the series on E. coli (ATCC 25922) (pH 8.2, E. coli, pH 8.2). The “E. coli inactivation rate constant k” value with E. coli (ATCC 25922) is on record as less than 0.01 L mg‒1 h‒1.

As for `O=C1C=C(Cl)C(=O)C=C1O` [SIR 157, 3-hydroxyl-6-monochloro-1,4-benzoquinone], the Peak area in series [1] (0 h) is given as 131; in series [1] (0.25 h), 1090; in series [1] (0.5 h) it was 1291; in series [1] (0.75 h) it was 1521; in series [1] (1 h) it was 1656; in series [1] (1.25 h) it was 1663. Moreover, the Peak area in series [1] (1.5 h) is listed as 1773; in series [1] (1.75 h), 1891; in series [1] (2 h), 1830; in series [1] (2.25 h), 2020; in series [1] (2.5 h) it was 2128; in series [1] (2.75 h), 2115. In addition, the Peak area in series [1] (3 h) is 2124; in series [1] (3.25 h), 2427; in series [1] (3.5 h), 2418; in series [1] (3.75 h) it was 2409; in series [1] (4 h), 2447; in series [1] (4.5 h), 2594. Besides, the Peak area in series [1] (5 h) was 2821; in series [1] (5.5 h), 2983; in series [1] (6 h), 3514; in series [1] (8 h), 4489; in series [1] (10 h) it was 4560; in series [1] (12 h), 4418. Moreover, the Peak area in series [1] (14 h) is listed as 4868; in series [1] (16 h), 4755; in series [1] (18 h), 4648; in series [1] (20 h), 5024; in series [1] (24 h) it was 4289.

As for `O=C1C=C(Cl)C(=O)C=C1Cl` [2,5-DCQ], the “Log reduction (Mean ± SD)” value in the series on E. coli (ATCC 25922) (dose 7.5 mg L−1) is recorded as 0.77 ± 0.14; in the series on E. coli (ATCC 25922) (dose 15 mg L−1), 3.78 ± 0.40.

Turning to `O=C(O)c1cc(Br)ccc1O` [5-BSA, 5-bromosalicylic acid], the log reduction at 3000 µg/mL in the series on E. coli (ATCC 25922) (pH 6.2, E. coli, pH 6.2) was determined as 0.221; in the series with E. coli (ATCC 25922) (pH 7.2, E. coli, pH 7.2), 0.132; in the series on E. coli (ATCC 25922) (pH 8.2, E. coli, pH 8.2) it was 0.331. The “E. coli inactivation rate constant k” value in the series on E. coli (ATCC 25922) is less than 0.01 L mg‒1 h‒1.

As to `O=C1C=C(Cl)C(=O)C(OC2=C(Cl)C(=O)C(Cl)=CC2=O)=C1` [SIR 333], the Peak area was 25 in series [1] (0 h); 566 in series [1] (0.25 h); 1172 in series [1] (0.5 h); 1708 in series [1] (0.75 h); 2037 in series [1] (1 h); 2462 in series [1] (1.25 h). Besides, the Peak area was 2725 in series [1] (1.5 h); 2905 in series [1] (1.75 h); 3055 in series [1] (2 h); 3331 in series [1] (2.25 h); 3689 in series [1] (2.5 h); 3558 in series [1] (2.75 h). Moreover, the Peak area in series [1] (3 h) is given as 3681; in series [1] (3.25 h) it was 3675; in series [1] (3.5 h) it was 3524; in series [1] (3.75 h) it was 3765; in series [1] (4 h) it was 3768; in series [1] (4.5 h), 3886. The Peak area in series [1] (5 h) is 4092; in series [1] (5.5 h) it was 3835; in series [1] (6 h), 3706; in series [1] (8 h), 3365; in series [1] (10 h) it was 2830; in series [1] (12 h), 2308. In addition, the Peak area in series [1] (14 h) is reported as 1768; in series [1] (16 h), 1379; in series [1] (18 h), 1089; in series [1] (20 h), 896; in series [1] (24 h), 463.

Values taken from PMC11161644, “An effective and rapidly degradable disinfectant from disinfection byproducts” (Nature Communications, 2024).
